Reference: US20150087622A1, “NEW METHOD OF USE OF A PESTICIDE” (SYNGENTA PARTICIPATIONS AG, priority 2012, published 2015)
Read-outs that look alike come from different tables or passages of the source.

Experiments:
[1] = system: Diabrotica balteata; assay: Transovarial effects on Diabrotica balteata adults fed on sprayed bean plants (% egg mortality); type: in vivo; settings: for mortality at 10 ppm / mortality at 25 ppm / mortality at 50 ppm: Diabrotica balteata
Method: The following IGRs in Table 1 were tested for their transovarial effects on Diabrotica balteata by observing percentage egg mortality.
Bean plants (Phaseolus vulgaris, var. Amata) were treated in an automatic spray chamber (ARO-1) with around 500 l/ha. After drying of the spray deposits, plants were placed in gauze cages and infested with newly hatched (0-24 h old) Diabrotica balteata adults. After seven days, treated plants were removed and replaced by non-treated plants. From day seven to day 38 eggs were collected in three-day intervals, counted and checked on number of hatched larvae (% egg mortality). Percentage egg mortality was calculated as the number of unhatched eggs per total number of eggs laid.

[2] = system: Colorado potato beetle; settings: cited from earlier work
[3] = system: Spodoptera frugiperda; assay: Foliar spray application on cotton, larval mortality of Spodoptera frugiperda; type: in vivo; settings: 4 DAT (days after treatment)
Description: For example on both Spodoptera frugiperda and Plutella xylostella similar activities were obtained for the same rates: […]

[4] = egg laying period 1, read-out: % egg mortality: on egg laying period 1
[5] = egg laying period 2, read-out: % egg mortality: on egg laying period 2
[6] = egg laying period 3, read-out: % egg mortality: on egg laying period 3
[7] = egg laying period 4, read-out: % egg mortality: on egg laying period 4
[8] = egg laying period 5, read-out: % egg mortality: on egg laying period 5
[9] = egg laying period 6, read-out: % egg mortality: on egg laying period 6
[10] = egg laying period 7, read-out: % egg mortality: on egg laying period 7
[11] = egg laying period 8, read-out: % egg mortality: on egg laying period 8
[12] = egg laying period 9, read-out: % egg mortality: on egg laying period 9
[13] = egg laying period 10, read-out: % egg mortality: on egg laying period 10
[14] = egg laying period 11, read-out: % egg mortality: on egg laying period 11
[15] = egg laying period 12, read-out: % egg mortality: on egg laying period 12

For `O=C(NC(=O)c1c(F)cccc1F)Nc1ccc(OC(F)(F)C(F)OC(F)(F)F)c(Cl)c1` (single isomer, unassigned; (+)) [Rimon, (+)-I-[3-chloro-4-(1,1,2-trifluoro-2-trifluoromethoxyethoxy)phenyl]-3-(2,6-difluorobenzoyl)urea], the “total number of sterilised (unhatched) eggs, considered over the whole test period” value (shortened to “total number … over the whole test period”) ([1]; 5 g AI ha^-1) was “≈ 25%”, the “total number … over the whole test period” value ([1]; 12.5 g AI ha^-1) was “≈ 25%” and the “total number … over the whole test period” value ([1]; 25 g AI ha^-1) was “≈ 90%”. The “days of effect (egg hatch inhibition) after a single foliar treatment” value ([1]; 50 g AI/ha during adult feeding on the crop plant) was “up to 21 days”, the mortality at 10 ppm [1, 4] was 100% and the mortality at 10 ppm [1, 5] was 100%. The mortality at 10 ppm [1, 6] was 99%, the mortality at 10 ppm [1, 7] was 50% and the mortality at 10 ppm [1, 8] was 10%. The mortality at 10 ppm [1, 9] was 13%, the mortality at 10 ppm [1, 10] was 10% and the mortality at 10 ppm [1, 11] was 11%. It also gave a mortality at 10 ppm [1, 12] of 18%, a mortality at 10 ppm [1, 13] of 9% and a mortality at 10 ppm [1, 14] of 9%. For the same compound, the mortality at 10 ppm [1, 15] was 12%, the mortality at 25 ppm [1, 4] was 100% and the mortality at 25 ppm [1, 5] was 100%. It also gave a mortality at 25 ppm [1, 6] of 100%, a mortality at 25 ppm [1, 7] of 93% and a mortality at 25 ppm [1, 9] of 25%. It also gave a mortality at 25 ppm [1, 10] of 14%, a mortality at 25 ppm [1, 12] of 22% and a mortality at 25 ppm [1, 13] of 7%. The mortality at 25 ppm [1, 14] was 0%, the mortality at 25 ppm [1, 15] was 4% and the mortality at 50 ppm [1, 5] was 100%. It also gave a mortality at 50 ppm [1, 6] of 100%, a mortality at 50 ppm [1, 7] of 100% and a mortality at 50 ppm [1, 8] of 100%. The mortality at 50 ppm [1, 9] was 100%, the mortality at 50 ppm [1, 10] was 100% and the mortality at 50 ppm [1, 11] was 100%. It also gave a mortality at 50 ppm [1, 12] of 92%, a mortality at 50 ppm [1, 13] of 29% and a mortality at 50 ppm [1, 14] of 96%. The mortality at 50 ppm [1, 15] was 41%, the “Spray interval” value ([1]; Rate 5 g AI/ha) was 7 days and the “Spray interval” value ([1]; Rate 12.5 g AI/ha) was 10 days. For the same compound, the “Spray interval” value ([1]; Rate 25 g AI/ha) was 21 days, the “rank for transovarial activity on Diabrotica balteata” value ([1]; among the IGRs tested) was “by far the best compound” and the “Transovarial effects on treated adults of Diabrotica balteata” value ([1]; at the used dose rates) was “Transovarial effects can be observed”. The “ability to economically stop egg hatching in Colorado potato beetle” value ([2]; 25 g AI ha^-1 (Cutler et al.)) was “insufficient”, the “viability of Colorado potato beetle eggs” value ([2]; adults feeding on novaluron-treated potato leaves, 87 g AI ha^-1 (Alyokhin et al.)) was “reduced viability” and the “time of feeding on untreated leaves after which the effect reverses” value ([2]; after 87 g AI ha^-1 (Alyokhin et al.)) was 48 to 96 h. The LC50 [3] was “LC50 = 1.1 ppm”.
